Reference: patent US20240301435A1, “COMPOSITIONS AND METHODS FOR TRANSFORMATION OF MONOCOT SEED EXCISED EMBRYO EXPLANTS” (Monsanto Technology LLC, priority 2021, published 2024)
Values joined by “and” are separate entries in the source; they are usually repeats but may differ in a detail not shown here. Identical values can stand only once.

Tests used:
Type in all cases: cell-based, corn (Zea mays)
[1] = tested on: corn seed excised explants; assay: Corn explant transformation: bud induction with different glyphosate concentrations, 28° C. vs 35° C. first week (Table 2)
Description: To evaluate the effect of elevated temperature during the initial bud induction step on transformation, two temperature treatments were evaluated using glyphosate for selection: 1) bud induction for two weeks at 28° C.; and 2) bud induction for one week at an elevated temperature of 35° C. followed by one week of bud induction at 28° C. The proceeding and subsequent steps for transformation of the corn explants in this experiment were generally performed as described in Example 1.
Following Agrobacterium inoculation and co-culture, corn explants were transferred to bud induction medium containing MS salts and B5 vitamins supplemented with 2 mg/L TDZ, 1 mg/L 2,4-D and different concentrations of glyphosate and cultured under the temperature conditions described above.
Total number shoots was calculated as the total number of shoots regenerated from inoculated explants, including both normal and chimeric shoots. The shoot frequency was calculated as the number of inoculated explants producing shoots divided by the total number of inoculated explants. […] The percentage normal shoots was calculated as the number of normal shoots divided by the total number of shoots. Normal shoot frequency was calculated as the number of normal shoots divided by the total number of inoculated explants.

[2] = tested on: corn seed excised explants; assay: 2,4-D in co-culture medium on corn explant transformation, 17 experiments (Table 32)
Description: Seventeen independent experiments were conducted to evaluate the effect of 2,4-D in the co-culture medium on corn explant transformation. Corn explants were surface sterilized, purified, rehydrated, inoculated with Agrobacterium, co-cultured, and subjected to bud induction, extended bud induction, and regeneration as described in Example 1, unless otherwise noted. Agrobacterium containing the same Ti plasmid as described in Example 9 was used for all experiments, except for experiments 13-17, in which two different bacterial origins of replication in the Ti-plasmid were evaluated in the presence or absence of 2,4-D in co-culture medium. In these cases, the Ti plasmids carried the same two expression cassettes flanked by T-DNA borders, one comprising the chloroplast-targeted CP4 EPSPS gene under the control of a constitutive promoter and the other comprising the uidA gene under the control of a similar constitutive promoter.
Table 32 provides a summary of results from treatments with and without 2,4-D in the co-culture medium from the 17 experiments. […] The increase in normal plant frequency ranged from 1.1 to 3.0-fold with an average increase of 1.8-fold.
(§1) The normal plant frequency was calculated as the number of normal plants divided by the total number of inoculated explants.

[3] = tested on: corn seed excised explants; assay: 2,4-D in co-culture and co-culture duration 4 vs 5 days on corn explant transformation (Tables 34, 35); settings: for # Normal Plants / Normal Plant Frequency (%) / Shoot Frequency (%) / Total # Shoots: 2,4-D (5 mg/L) in co-culture +; for average normal plant frequency (%): 2,4-D present in co-culture (5 mg/L)
Description: In a separate experiment, co-culture durations of 4 days and 5 days were evaluated in combination with the presence or absence of 5 mg/L 2,4-D in the co-culture medium. Corn seed excised explants were surface sterilized, rehydrated and inoculated with an Agrobacterium suspension as described in the preceding experiment. The Agrobacterium contained a chloroplast-targeted CP4 EPSPS gene under the control of a constitutive promoter flanked by T-DNA borders on the Ti plasmid. The inoculated explants were transferred to co-culture plates with or without 5 mg/L 2,4-D and co-cultured for 4 or 5 days prior to bud induction, extended bud induction, and regeneration as described in the preceding experiment.
Furthermore, co-culture for 4 days produced a higher normal plant frequency compared to co-culture for 5 days.
The shoot frequency was calculated as the number of inoculated explants producing shoots divided by the total number of inoculated explants. The normal plant frequency was calculated as the number of normal plants divided by the total number of inoculated explants.
as §1

corn explants = assay: Different cytokinins during bud induction on corn explant transformation (Table 30); settings: for # Normal Shoot / Total # Shoot: 5,000 explants
Description: An experiment was conducted to evaluate the effect of using different cytokinins during bud induction on corn explant transformation. Corn explants were surface sterilized, purified, rehydrated, inoculated with Agrobacterium, co-cultured, and subjected to the bud induction (without the second extended bud induction step) and regeneration steps as described in Example 1, unless otherwise noted. Glyphosate was used as the selection agent.
In this experiment, bud induction using four cytokinins, 6-Benzylaminopurine (BAP), Zeatin, thidiazuron (TDZ) and 6-(γ,γ-dimethylallylamino)purine (2iP), was evaluated.
The shoot frequency was calculated as the number of inoculated explants producing shoots divided by the total number of inoculated explants. The normal shoot frequency was calculated as the number of normal shoots divided by the total number of inoculated explants.

[4] = glyphosate 12.5 μM, 1st week bud induction 28° C.
[5] = glyphosate 12.5 μM, 1st week bud induction 35° C.
[6] = glyphosate 25.0 μM, 1st week bud induction 28° C.
[7] = glyphosate 25.0 μM, 1st week bud induction 35° C.
[8] = glyphosate 37.5 μM, 1st week bud induction 28° C.
[9] = glyphosate 37.5 μM, 1st week bud induction 35° C.
[10] = glyphosate 50.0 μM, 1st week bud induction 28° C.
[11] = glyphosate 50.0 μM, 1st week bud induction 35° C.
[12] = cytokinin 2 mg/L in bud induction
[13] = cytokinin 10 mg/L in bud induction

Compound: O=C(O)CNCP(=O)(O)O [Glyphosate, glyphosate]
- Normal Shoot Frequency (%) [1, 4]: 0.36%
- Normal Shoots (%) [1, 4]: 10.23%
- Shoot Frequency (%) [1, 4]: 3.52%
- Total # Normal Shoots [1, 4]: 9
- Total # Shoots [1, 4]: 88
- Normal Shoot Frequency (%) [1, 5]: 1.12%
- Normal Shoots (%) [1, 5]: 14.43%
- Shoot Frequency (%) [1, 5]: 7.76%
- Total # Normal Shoots [1, 5]: 28
- Total # Shoots [1, 5]: 194
- Normal Shoot Frequency (%) [1, 6]: 0.28%
- Normal Shoots (%) [1, 6]: 31.82%
- Shoot Frequency (%) [1, 6]: 0.88%
- Total # Normal Shoots [1, 6]: 7
- Total # Shoots [1, 6]: 22
- Normal Shoot Frequency (%) [1, 7]: 1.84%
- Normal Shoots (%) [1, 7]: 20.91%
- Shoot Frequency (%) [1, 7]: 8.8%
- Total # Normal Shoots [1, 7]: 46
- Total # Shoots [1, 7]: 220
- Normal Shoot Frequency (%) [1, 8]: 0.2%
- Normal Shoots (%) [1, 8]: 83.33%
- Shoot Frequency (%) [1, 8]: 0.24%
- Total # Normal Shoots [1, 8]: 5
- Total # Shoots [1, 8]: 6
- Normal Shoot Frequency (%) [1, 9]: 1.36%
- Normal Shoots (%) [1, 9]: 22.82%
- Shoot Frequency (%) [1, 9]: 5.96%
- Total # Normal Shoots [1, 9]: 34
- Total # Shoots [1, 9]: 149
- Normal Shoot Frequency (%) [1, 10]: 0.16%
- Normal Shoots (%) [1, 10]: 66.67%
- Shoot Frequency (%) [1, 10]: 0.24%
- Total # Normal Shoots [1, 10]: 4
- Total # Shoots [1, 10]: 6
- Normal Shoot Frequency (%) [1, 11]: 1.8%
- Normal Shoots (%) [1, 11]: 32.61%
- Shoot Frequency (%) [1, 11]: 5.52%
- Total # Normal Shoots [1, 11]: 45
- Total # Shoots [1, 11]: 138

Compound: O=C(O)COc1ccc(Cl)cc1Cl [2,4-D, 2,4-dichlorophenoxyacetic acid]
- Normal Plant Frequency (%) With 2,4-D (5 mg/L) ([2]; 2,4-D 5 mg/L in co-culture medium, individual experiments 1-17, normal plants / inoculated explants): 1.10% and 1.24% and 1.48% and 0.20% and 0.60% and 2.40% and 1.70% (2×) and 4.20% and 1.50% and 0.40% (2×) and 0.70% and 0.80% and 1.40% and 1.00% and 1.56%
- Normal Plant Frequency (%) With 2,4-D (5 mg/L), OVERALL ([2]; 2,4-D 5 mg/L in co-culture medium, overall of 17 experiments): 1.32%
- average increase in normal plant frequency on removal of 2,4-D from the co-culture medium ([2]; 17 experiments): 1.8 fold
- # Normal Plants ([3]; co-culture duration 4 days): 19 and 10
- Normal Plant Frequency (%) ([3]; co-culture duration 4 days): 0.8% and 0.9%
- Shoot Frequency (%) ([3]; co-culture duration 4 days): 1.5% and 1.1%
- Total # Shoots ([3]; co-culture duration 4 days): 35 and 21
- # Normal Plants ([3]; co-culture duration 5 days): 4
- Normal Plant Frequency (%) ([3]; co-culture duration 5 days): 0.5%
- Shoot Frequency (%) ([3]; co-culture duration 5 days): 1.1%
- Total # Shoots ([3]; co-culture duration 5 days): 9
- average normal plant frequency (%) ([3]; duration 4 days): 0.85%
- average normal plant frequency (%) ([3]; duration 5 days): 0.5%
- average normal plant frequency ([3]; 2,4-D present in co-culture medium (5 mg/L), 4 and 5 days): 0.73%

Compound: C/C(=C\CNc1ncnc2[nH]cnc12)CO [Zeatin]
- Normal Shoot Frequency (%) (corn explants; [12]): 0.06%
- Shoot Frequency (%) (corn explants; [12]): 0.20%
- # Normal Shoot (corn explants; [12]): 3
- Total # Shoot (corn explants; [12]): 10

Compound: CC(C)=CCNc1ncnc2nc[nH]c12 [2iP, 6-(γ,γ-dimethylallylamino)purine]
- Normal Shoot Frequency (%) (corn explants; [13]): 0.06%
- Shoot Frequency (%) (corn explants; [13]): 0.14%
- # Normal Shoot (corn explants; [13]): 3
- Total # Shoot (corn explants; [13]): 7

Compound: O=C(Nc1ccccc1)Nc1cnns1 [TDZ, thidiazuron]
- Normal Shoot Frequency (%) (corn explants; [12]): 1.70%
- Shoot Frequency (%) (corn explants; [12]): 8.88%
- # Normal Shoot (corn explants; [12]): 85
- Total # Shoot (corn explants; [12]): 444

Compound: c1ccc(CNc2ncnc3nc[nH]c23)cc1 [BAP, 6-Benzylaminopurine]
- Normal Shoot Frequency (%) (corn explants; [13]): 1.56%
- Shoot Frequency (%) (corn explants; [13]): 5.80%
- # Normal Shoot (corn explants; [13]): 78
- Total # Shoot (corn explants; [13]): 290
- bud induction (corn explants; other studies, 1-8 mg/L BAP): bud induction was also observed
